{
  "source": "patent US11535599B2",
  "about": "“Benzisoxazole derivative” (Sumitomo Pharma Co., Ltd., priority 2020, dated 2022)",
  "test_system": "oxaliplatin chemotherapy-induced peripheral neuropathy model",
  "assay": "Anti-allodynia effect in chemotherapy-induced peripheral neuropathy model (acetone test)",
  "type": "in vivo, rat",
  "settings": "Example 13 100 mg/kg oral once a day 17 times; duloxetine 30 mg/kg oral single",
  "from_the_text": "As one of chemotherapy-induced peripheral neuropathy, sensory disturbance due to neuropathy caused by a platinating agent that is an anticancer agent such as cisplatin and oxaliplatin is known, and the symptom is difficult to be recovered even after the medication is discontinued. The therapeutic effect for sensory disturbance caused by repetitive administration of oxaliplatin was studied in the present test.\nTo male Crl: CD (SD) rats (7 weeks old) (CHARLES RIVER LABORATORIES JAPAN, INC.), oxaliplatin (5 mg/kg) was intraperitoneally administered for the two consecutive days in a week, totally 6 times, to prepare chemotherapy-induced peripheral neuropathy models. The compound of Example 13 (100 mg/kg) was repeatedly orally administered once a day, totally 17 times. […] In the acetone test, 0.1 mL of acetone was sprayed to the foot sole of the rat hind paw, and the reaction was evaluated according a scoring (Cold Score). When there was no reaction for 20 seconds after spraying acetone, Score 0 was recorded and the observation was stopped. When there was any reaction for the 20 seconds, the observation was continued until 40 seconds after spraying, and the score was recorded according to the evaluation scale. The acetone spray was done twice each for right and left hind paws, and the total score was calculated. […]",
  "data": [
    {"smiles": "C[C@H](c1noc2ccccc12)S(N)(=O)=O", "note": "[Example 13, (1R)-1-(1,2-benzoxazol-3-yl)ethane-1-sulfonamide]", "values": [
      {"measurement": "Cold Score in acetone test", "value": "significantly lower Cold Score"}
    ]}
  ]
}
